Source: patent US20260297164A1, “ANTI-FIBROTIC PEPTIDES AND USES THEREOF” (Deackt, Inc., priority 2021, published 2026)

Test system: TGF-β1-induced PI3K/Akt/mTOR, p62, IKK signaling in mouse lung fibroblasts
Assay: Western immunoblot of signaling proteins in TGF-β1-stimulated mouse lung fibroblasts (SDC2-pep)
Type: cell-based
Conditions: wild type fibroblasts, TGF-β1 10 ng/ml, 24 h
Description: FIG. 5. […] (A-C) Ptprj^fl/fl Col1a2^Cre-ER(T)+/0 mice (fibroblast-specific CD148 deficient) and Col1a2^Cre-ER(T)+/0 (WT) mice were exposed to BLM. SDC2 18-aa peptide (SDC2-pep, 0.5 mg/kg) was intranasally delivered into WT and Ptprj^fl/fl Col1a2^Cre-ER(T)+/0 mice 10 days after BLM injury. Treatments were repeated at day 12, 14, 16 and 18. (A) At 24 days after BLM exposure lungs were harvested and stained with Masson's trichrome (n=3 for saline and n=5 for BLM groups). (B) Hydroxyproline content was measured in the left lung of mice exposed to BLM (n=11) or saline (n=5). Gene expression of (C) Fn and Col1a1; and (D) connective tissue growth factor (Ctgf) in harvested lungs were measured using qPCR (n=5 for each condition). […] (E) Expression of p-AKT/Akt, p-mTOR/mTOR, p62/GAPDH p-IKKα/β/IKKα, α-SMA/GAPDH, and CD148/GAPDH was determined by Western immunoblotting (n=4), and corresponding densitometry (ImageJ software). […] (F) mRNA levels of Col1a1 and Fn were measured by qPCR (n=5 for each condition). […] Gel contractility was measured at 0, 12, and 24 h after TGF-β1 stimulation (n=6 for each condition). […] Total cell concentrations were measured in BAL fluid from Ptprj^fl/fl Col1a2^Cre-ER(T)+/0 mice and Col1a2-Cre (control) mice 21 days after BLM injury (n=5/group). […]

Question: How did the “expression of p-Akt, p-mTOR, p62, p-IKKα/β, and α-SMA” value turn out when TGF-β1 was run?
Answer: Its value is “increased”.
